Our source for the IC50 values is US12398121B2 (Nuvation Bio Inc., priority 2018, dated 2025).

Structures are written as SMILES. Read-outs that look alike come from different tables or passages of the source.

One assay has as its system 22RV1 cells. Kind of assay: Cell proliferation assay (CellTiter Glo), 22RV1. The class given is cell-based. The note with it: Homo sapiens, 22Rv1, 72 h, read-out: 22RV1 IC50. Here is the method:
IC50 values were calculated and graphed using the model “log(inhibitor) vs. response—Variable slope” included in GraphPad Prism 5 (San Diego, CA). The Ki values were further calculated using the equation below where [L] was the radioligand concentration (1 nM) using in this study. Kd value was 0.332 nM. Ki=IC50/(1+[L]/Kd) c. AR transactivation: Human AR cloned into a CMV vector backbone was used for the transactivation study. HEK-293 cells were plated at 80,000 cells per well of a 24 well plate in DME+5% csFBS. Twenty four hours later, the cells were transfected using Lipofectamine (Invitrogen, Carlsbad, CA) with 0.25 μg GRE-LUC, 0.01 μg CMV-LUC (renilla luciferase) and 25 ng of the AR in OPTIMEM medium. The cells were treated 24 hrs after transfection with various ligands (10^−12 to 10^−5 M final concentrations) and luciferase assay were performed 48 hours after transfection. Firefly values were normalized to renilla luciferase values and the values were represented as relative light units (RLU). Agonist and antagonist assays for the test article were performed in the absence and in the combination with 0.1 nM R1881, respectively. Data were represented as EC50 (for agonists) and IC50 (for antagonists) obtained from four parameter logistics curve. Cell culture and proliferation assays: LNCaP, PC-3, 22RV1, MCF-7, HT-29, and HCT-116 cells were procured from American Type Culture Collection (ATCC). Cells were cultured in medium recommended by the ATCC. Cell culture medium was obtained from Fisher scientific (Waltham, MA) and serum was obtained from Hyclone (San Angelo, TX).
Cells were plated at varying density in the respective growth medium in 96 well plates. 24 hr later, cells were treated, in triplicate or quadruplicate, with test articles prepared in a range of concentrations by series dilution of DMSO stock solutions in growth medium and incubated for three to seven days. The number of viable 22RV1 and HT-29 cells was measured using CellTiter Glo assay (CTG, Promega, Madison, WI) after three days of treatment. The other types of cancer cells were re-treated at three or four days and the number of viable cells was measured using CTG assay after a total treatment time of six or seven days. Cell viability data were plotted using GraphPad Prism (GraphPad Software, Inc., San Diego, CA). In addition, a nonlinear regression model with a sigmoidal dose response and variable slope within GraphPad Prism was used to calculate the IC50 value of individual test articles. Additional cell proliferation assays: Other cancer cell lines are tested in a cell proliferation assay. For example, SK-OV-3 or OVCAR3 ovarian cancer cells are tested. Cells are cultured in medium recommended by the supplier (e.g., ATCC or JCRB Cell Bank), at 37° C. in a 5% CO2 environment. For the proliferation assay, cells are plated in the growth medium in 96 well plates. Seeding density is adjusted according to the cell type. 24 hr later, cells are treated, in triplicate or quadruplicate, with test articles prepared in a range of concentrations by series dilution of DMSO stock solutions in growth medium, and typically incubated for three to seven days, with test article-containing medium replaced after three or four days. The number of viable cells is measured using CellTiter Glo assay (CTG, Promega, Madison, WI) or similar. Cell viability data are plotted using GraphPad Prism (GraphPad Software, Inc., San Diego, CA). In addition, a nonlinear regression model with a sigmoidal dose response and variable slope within GraphPad Prism is used to calculate the IC50 value of individual test articles. Similarly, HEK-293 and HeLa calls can also be tested by methods known in the art. • f. Nuclear translocation: LNCaP cells are plated on coverslips in 24 well plates in growth medium. Twenty-four hours after plating, medium is changed to RPMI+1% csFBS and the cells are maintained in this medium for two days. Medium is replaced again and the cells are treated. […]
In general terms: ATP-based viability assays read luminescence as a measure of living cells.

Another assay concerns the target Human recombinant PARP2 (Homo sapiens, UniProt Q9UGN5). Briefly: RBC HotSpot PARP2 radioisotope-based filter binding assay. It counts as biochemical. The method, then: The following methods are for evaluating the in vitro biology properties of the test articles. • a. RBC HotSpot Poly(ADP-ribose) Polymerases 1 (PARP1) and Poly(ADP-ribose) Polymerases 2 (PARP2) Assays: The assay principle is radioisotope-based filter binding assay where incorporation of radioisotope-labeled NAD^+ into the substrate captured on filter is detected after washout free NAD^+. Data were analyzed using Excel and GraphPad Prism software for IC50 curve fits. Each assay was conducted with PJ34 as a positive control. • i. PARP1 assay: Human recombinant PARP1 at a final concentration of 2.5 nM was combined with histone H4 (20 μM) and test articles at various concentrations in reaction buffer (50 mM Tris-HCL, pH 8.0, 50 mM NaCl, 10 mM MgCl2, 1 mM DTT, 1% DMSO, and 20 μg/mL activated DNA). The solution was inoculated for 20 min at room temperature and the reaction initiated by adding [adenylate-^32P]-Nicotinamide Adenine Dinucleotide, ^32P-NAD^+ at a final concentration of 10 μM. After incubation for 2 hour at room temperature, the reaction mixture was filtered and washed with 0.75% phosphoric acid for radioactivity detection. • ii. PARP2 assay: Human recombinant PARP2 at a final concentration of 2.5 nM was combined with histone H3 (20 μM) and test articles at various concentrations in reaction buffer (50 mM Tris-HCL, pH 8.0, 50 mM NaCl, 10 mM MgCl2, 1 mM DTT, 1% DMSO, and 20 μg/mL activated DNA). The solution was inoculated for 20 min at room temperature and the reaction was initiated by adding [adenylate-^32P]-Nicotinamide Adenine Dinucleotide, ^32P-NAD^+ at a final concentration of 10 μM. After incubation for 2 hour at room temperature, the reaction mixture was filtered and washed with 0.75% phosphoric acid for radioactivity detection. • b. AR binding assay: AR in LNCaP cytosol was used for determining the binding affinity of test articles and the reference compound—progesterone (Sigma, Cat: E2785, St. Louis, MO). IC50s were determined using 8 concentrations/compound. Cytosol was plated at 200 μg/well (100 μL) into a 96-well conical polypropylene plate (Agilent, Cat: 5042-1385, Santa Clara, CA) and mixed with 3 μL of test compound. After adding 100 μL of ^3H-methyltrienolone (PerkinElmer, Cat: NET590250UC, San Jose, CA), the plate was sealed and shaken at 300 rpm at 4° C. for 24 hours. Post incubation, 100 μL of radioligand adsorption buffer containing 10 mM Tris-HCl, pH 7.4; 1.5 mM EDTA; 1 mM DTT; 0.25% charcoal; 0.0025% dextran was added to individual well. Plate was shaken for 15 min at 4′C followed by centrifugation at 3000 rpm for 30 min at 4° C. 150 μL of supernatant was transferred into scint-tube (PerkinElmer, Cat: 6000192) and mixed with 2 mL of Ultima Gold Cocktail (PerkinElmer, Cat: 6013329). Radioactivity was counted using a TriCarb 2910 TR scintillation counter (PerkinElmer). Inhibition of the radioactivity by test articles were calculated using the equation below: % Inhibition=(1−(Assay well−Average_LC)/(Average_HC−Average_LC))×100%.

Setting [1] is: 2.5 nM enzyme, histone H3, 10 μM 32P-NAD+, read-out: PARP2 IC50.

Sequence of Human recombinant PARP2 (Q9UGN5 whole entry): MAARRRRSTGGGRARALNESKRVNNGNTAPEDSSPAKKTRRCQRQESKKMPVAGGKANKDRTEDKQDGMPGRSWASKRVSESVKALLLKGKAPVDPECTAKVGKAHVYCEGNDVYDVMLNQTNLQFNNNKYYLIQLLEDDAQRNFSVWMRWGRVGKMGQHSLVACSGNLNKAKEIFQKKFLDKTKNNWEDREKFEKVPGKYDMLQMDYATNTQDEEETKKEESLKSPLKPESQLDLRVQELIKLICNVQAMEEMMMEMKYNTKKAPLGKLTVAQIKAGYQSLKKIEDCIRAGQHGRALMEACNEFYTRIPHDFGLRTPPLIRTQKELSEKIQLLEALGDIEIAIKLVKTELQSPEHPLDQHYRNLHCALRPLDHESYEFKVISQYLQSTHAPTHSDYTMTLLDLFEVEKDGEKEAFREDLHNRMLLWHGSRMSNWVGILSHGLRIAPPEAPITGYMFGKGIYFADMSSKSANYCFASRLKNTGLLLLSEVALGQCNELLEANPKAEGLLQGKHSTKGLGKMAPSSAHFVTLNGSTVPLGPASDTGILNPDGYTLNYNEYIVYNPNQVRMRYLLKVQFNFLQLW

For the compound `CC(O)(CS(=O)(=O)c1ccc(NCCn2cc(CN3CCN(C(=O)c4cc(Cc5n[nH]c(=O)c6ccccc56)ccc4F)CC3)nn2)cc1)C(=O)Nc1ccc(C#N)c(C(F)(F)F)c1` (stereo in doubt) [Compound 1.97, (S)-N-(4-cyano-3-(trifluoromethyl)phenyl)-3-(4-(2-(4-((4-(2-fluoro-5-((4-oxo-3,4-dihydrophthalazin-1-yl)methyl)benzoyl)piperazin-1-yl)methyl)-1H-1,2,3-triazol-1-yl)ethylamino)phenylsulfonyl)-2-hydroxy-2-methylpropanamide], the half-inhibitory concentration (IC50) (in general, the concentration needed to halve the response being measured) in the assay with 22RV1 cells is more than 30 µM; on Human recombinant PARP2, 0.4 nM. Consider `C[C@]12CCC(=O)C[C@@H]1CC[C@@H]1[C@@H]2CC[C@@]2(C)[C@H]1CC[C@@]2(O)CCC(=O)N1CCN(C(=O)c2cc(Cc3n[nH]c(=O)c4ccccc34)ccc2F)CC1` (stereo in doubt) [Compound 1.117, 4-(4-fluoro-3-(4-(3-((5S,8R,9S,10S,13S,14S,17R)-17-hydroxy-10,13-dimethyl-3-oxohexadecahydro-1H-cyclopenta[a]phenanthren-17-yl)propanoyl)piperazine-1-carbonyl)benzyl)phthalazin-1(2H)-one], for which the half-maximal inhibitory concentration (IC50) worked out at 0.44 µM in the assay on 22RV1 cells (cell growth inhibition, three days of treatment) and 0.1 nM on Human recombinant PARP2 (setting [1]). `CC1(C)C(=O)N(c2ccc(C#N)c(C(F)(F)F)c2)C(=S)N1c1ccc(C(=O)NCCCCCC(=O)N2CCN(C(=O)c3cc(Cc4n[nH]c(=O)c5ccccc45)ccc3F)CC2)c(F)c1` [Compound 1.1, 4-(3-(4-cyano-3-(trifluoromethyl)phenyl)-5,5-dimethyl-4-oxo-2-thioxoimidazolidin-1-yl)-2-fluoro-N-(6-(4-(2-fluoro-5-((4-oxo-3,4-dihydrophthalazin-1-yl)methyl)benzoyl)piperazin-1-yl)-6-oxohexyl)benzamide]: the IC50 on Human recombinant PARP2 turned out to be 0.2 nM. `C[C@]12CCC(=O)C[C@@H]1CC[C@@H]1[C@@H]2CC[C@]2(C)[C@@H](OCCCCCC(=O)N3CCN(C(=O)c4cc(Cc5n[nH]c(=O)c6ccccc56)ccc4F)CC3)CC[C@@H]12` [Compound 1.2, 4-(3-(4-(6-(((5S,8R,9S,10S,13S,14S,17S)-10,13-dimethyl-3-oxohexadecahydro-1H-cyclopenta[a]phenanthren-17-yl)oxy)hexanoyl)piperazine-1-carbonyl)-4-fluorobenzyl)phthalazin-1(2H)-one]: the values for the half-inhibitory concentration (IC50) in the assay with 22RV1 cells and at Human recombinant PARP2 (setting [1]) were 0.4 µM and 0.2 nM, respectively.

With `CC1(C)C(=O)N(c2ccc(C#N)c(C(F)(F)F)c2)C(=S)N1c1ccc(C(=O)NCCCCCCNCc2ccc(-c3[nH]c4cc(F)cc5c4c3CCNC5=O)cc2)c(F)c1` [Compound 1.5, 4-(3-(4-cyano-3-(trifluoromethyl)phenyl)-5,5-dimethyl-4-oxo-2-thioxoimidazolidin-1-yl)-2-fluoro-N-(6-((4-(8-fluoro-1-oxo-2,3,4,6-tetrahydro-1H-azepino[5,4,3-cd]indol-5-yl)benzyl)amino)hexyl)benzamide], the 50% inhibitory concentration (IC50) in the assay with 22RV1 cells came to 4.5 µM; at Human recombinant PARP2, 2 nM. As to `C[C@](O)(CS(=O)(=O)c1ccc(NCCCCCC(=O)N2CCN(C(=O)c3cc(Cc4n[nH]c(=O)c5ccccc45)ccc3F)CC2)cc1)C(=O)Nc1ccc(C#N)c(C(F)(F)F)c1` [Compound 1.68, (R)-N-(4-cyano-3-(trifluoromethyl)phenyl)-3-(4-(6-(4-(2-fluoro-5-((4-oxo-3,4-dihydrophthalazin-1-yl)methyl)benzoyl)piperazin-1-yl)-6-oxohexylamino)phenylsulfonyl)-2-hydroxy-2-methylpropanamide], the IC50 with 22RV1 cells was 4.7 µM; on Human recombinant PARP2 it was 0.2 nM. Take `C[C@](O)(COc1ccc(NCCCCCC(=O)N2CCN(C(=O)c3cc(Cc4n[nH]c(=O)c5ccccc45)ccc3F)CC2)cc1)C(=O)Nc1ccc(C#N)c(C(F)(F)F)c1` [Compound 1.83, (S)-N-(4-cyano-3-(trifluoromethyl)phenyl)-3-(4-(6-(4-(2-fluoro-5-((4-oxo-3,4-dihydrophthalazin-1-yl)methyl)benzoyl)piperazin-1-yl)-6-oxohexylamino)phenoxy)-2-hydroxy-2-methylpropanamide]: the results for the concentration for half-maximal inhibition (IC50) in the assay with 22RV1 cells and on Human recombinant PARP2 (setting [1]) were more than 30 µM and 0.3 nM, respectively.

In the case of `CN(CCCCCC(=O)N1CCN(C(=O)c2cc(Cc3n[nH]c(=O)c4ccccc34)ccc2F)CC1)CCOc1ccc(C(=O)c2c(-c3ccc(O)cc3)sc3cc(O)ccc23)cc1` [Compound 2.4, 4-(4-fluoro-3-(4-(6-((2-(4-(6-hydroxy-2-(4-hydroxyphenyl)benzo[b]thiophene-3-carbonyl)phenoxy)ethyl)(methyl)amino)hexanoyl)piperazine-1-carbonyl)benzyl)phthalazin-1(2H)-one], the IC50 at Human recombinant PARP2 (setting [1]) was found to be 0.3 nM. As to `CCC(=C(c1ccc(O)cc1)c1ccc(OCCN2CCN(C(=O)c3cc(Cc4n[nH]c(=O)c5ccccc45)ccc3F)CC2)cc1)c1ccccc1` [Compound 2.14, 4-(4-fluoro-3-(4-(2-(4-(1-(4-hydroxyphenyl)-2-phenylbut-1-enyl)phenoxy)ethyl)piperazine-1-carbonyl)benzyl)pthalazin-1(2H)-one], the concentration for half-maximal inhibition (IC50) on Human recombinant PARP2 (setting [1]) came to 12.4 nM.
